Measured values taken from patent US20230065562A1, “DUAL CONTROLS FOR THERAPEUTIC CELL ACTIVATION OR ELIMINATION” (Bellicum Pharmaceuticals, Inc., priority 2015, published 2023).
Where two headings read alike, the source gives them in different places.

What was measured:
293 cells [1] = experiment: SEAP assay: iMC (tandem FKBP) scaffold plus FRBL2-Caspase-9; assay type: cell-based; settings: tandem FKBPs (iMC) present
Experimental: FIGS. 16A and 16B are line graphs showing that tandem FKBP scaffold mediates FRBL2. Caspase activation in the presence of rapalogs. FIG. 16A. HEK-293 cells were transfected with 1 μg each of SRα-SEAP reporter plasmid, Δmyr.iMC.2A-anti-CD19.CAR.CD3ζ (pBP0608), and FRBL2. Caspase-9 (pBP0467). […] After ON incubation, cell supernatants were assayed for SEAP activity, as previously described. FIG. 16B. Similar to the experiment described in (FIG. 16A), except that cells were transfected with a membrane-localized (myristoylated) iMC.2A-CD19.CAR.CD3ζ (pBP0609), instead of non-myristoylated Δmyr.iMC.2A-CD19.CAR.CD3ζ (pBP0608).
In a second test for rapalog-mediated scaffold-based activation of Caspase-9, 293 cells were transiently transfected with SRα-SEAP reporter plasmid, plus myristoylated or non-myristoylated inducible iMC co-expressed with 1st generation anti-CD19 CAR, plus FRBL2-fused Caspase-9 (plasmid pBP0467) (FIG. 16).

293T cells = experiment: SeAP reporter assay: FRBL-Caspase9 plus FKBPv12-Caspase9 heterodimerization; assay type: cell-based; settings: FRBL-Caspase 9 plus FKBPV12-Caspase 9
Experimental: HEK 293T cells (5×10^5) were seeded on a 100-mm tissue culture dish in 10 mL DMEM4500, supplemented with glutamine, penicillin/streptomycin and 10% fetal calf serum. After 16-30 hours incubation, cells were transfected using Novagen's GeneJuice® protocol. Briefly, for each transfection, 0.5 mL OptiMEM was pipetted into a 1.5-mL microcentrifuge tube and 15 μL GeneJuice reagent added followed by 5 sec. vortexing. Samples were rested 5 minutes to settle the GeneJuice suspension. DNA (5 μg total) was added to each tube and mixed by pipetting up and down four times. Samples were allowed to rest for 5 minutes for GeneJuice-DNA complex formation and the suspension added dropwise to one dish of 293T cells. […]
24 hours after drug stimulation, 96-well plates were wrapped to prevent evaporation and incubated at 65° C. for 2 hours to inactivate endogenous and serum phosphatases while the heat-stable SeAP reporter remains (1, 4, 12). […] Phosphatase activity was measured by fluorescence with excitation at 355 nm and emission at 460 nm. […]
FIG. 37—Drug induced programmed cell death by homodimerization or heterodimerization of tagged caspase 9. […] Reporter activity is expressed as a percentage of the average of 8 control wells containing no drug. […]
FIG. 38—Rapalog-induced cell death switch. […] Reporter activity is expressed as a percentage of the average of 8 wells containing no drug. […]

293 cells [2] = experiment: SEAP assay: FRB-tagged CAR plus iCaspase-9 in 293 cells; assay type: cell-based; settings: FRB-tagged CAR plus FKBP-tagged Caspase-9
Source text: FIGS. 6A and 6B provide the results of an assay of two-tiered activation of apoptosis.
As a proof of principal, two tandem FRB, domains were fused to either a 1st generation Her2-CAR or to a 1st generation CD19-CAR co-expressing inducible Caspase-9. 293 cells were transiently transfected with a constitutive reporter plasmid, SRα-SEAP, along with normalized levels of expression plasmids encoding Her2-CAR-FRB2, iCaspase-9, Her2-CAR-FRBl2+iCasp9, iC9-CAR(19).FRBl2 (coexpressing both CD19-CAR-FRBl2 and iCaspase9), or control vector. […] After overnight incubation with drugs, SEAP activity was determined. […] This dose-dependent decrease required the presence of both the FRB-tagged CAR and the FKBP-tagged Caspase-9. […] Moreover, on- or off-target-mediated CAR clustering should increase the sensitivity of killing primarily at the site of scFv engagement.

293 cells [3] = experiment: 293 cells transfected with iC9 or iRC9: caspase 3/7 (IncuCyte) and SRα SEAP assays; assay type: cell-based
Experimental: 293 cells were seeded at 300,000 cells/well in a 6-well plate and allowed to grow for 2 days. After 48 h, cells were transfected with 1 μg of experimental plasmids. Cells were harvested 48 h after transfection and diluted 2.5× their original volume.
For FIG. 52B left graph, the lines of the graph, as indicated at the 10^3 point of the x-axis are, from top to bottom, negative control, FKBP.FRB.C9, FRB.FKBP.C9, iC9. For FIG. 52B right graph, the lines of the graph at the 10^3 point of the x-axis are, from top to bottom negative control, iC9, FKBP.FRB.C9, and FRB.FKBP.C9.
On day 0, 5×10^5 293 cells were seeded onto 6-well plates in 2 ml DMEM medium (10% FBS+1% pen/strep). […] On day 2, cells were collected, and seeded onto 96-well plates containing 2× concentrated half-log drug dilutions and also analyzed by FACS for transfection efficiency. On day 3, the drug-treated cells were heat inactivated at 68° C. for 1 hour and supernatants were added to black 96-well plate containing 1 mM MUP substrate (2× concentration) diluted in 2M diethanolamine. The plates were incubated at 37° C. for 30 min and absorbance at 405 nm was measured.

HPAC PSCA+ tumor cells = experiment: T cell anti-tumor assay with HPAC-RFP cells (IncuCyte, ELISA); assay type: cell-based, human; settings: 10 nM on day 7 of co-culture
Experimental: PBMCs from donor 920 were activated and co-transduced with GFP-Ffluc and iMC+CARζ-T (189), i9+CARζ+MC (873), or FwtFRBC9/MC.FvFv (1308)-encoding vectors. […] (A & B) Two days post-seeding, culture supernatants were analyzed for IL-2, IL-6, and IFN-γ production by ELISA. […] Numbers of HPAC-RFP and T cell-GFP at the E:T 1:2 ratio was analyzed using the basic analyzer software for the IncuCyte at day 7 (Ci) and day 8 with 0 nM suicide drug (Cii) and 10 nM suicide drug (Ciii). Similar analysis was also performed at the 1:5 E:T ratio (D). (Note: the y-axis in Ci and Di are at log-scale).
The HPAC PSCA^+ tumor cells were stably labeled with nuclear-localized RFP protein using the NucLight™ Red Lentivirus Reagent (Essen Bioscience, 4625). To set up the coculture, 4000 HPAC-RFP cells were seeded per well of 96-well plates in 100 μl of CTL medium without IL-2 for at least 4 hours to allow tumor cells to adhere. After transduction with the appropriate retrovirus and allowed to rest for at least 7 days in culture, T were seeded according to various E:T ratios to the HPAC-RFP-containing 96-well plates. […] Each plate was set up in duplicates, one plate to monitor with the IncuCyte cell imaging system and one plate for supernatant collection for ELISA assay on day 2. The plates were centrifuged for 5 min at 400×g and placed inside the IncuCyte (Essen Bioscience, Dual Color Model 4459) to monitor red fluorescence (and green fluorescence if T cells were labeled with GFP-Ffluc) every 2-3 hours for a total of 7 days at 10× objective. Image analysis was performed using the “HPAC-RFP_TcellsGFP_10×_MLD” processing definition. On day 7, HPAC-RFP cells were analyzed using the “Red Object Count (1/well)” metric. […] On day 8, Tcell-GFP cells were analyzed using the “Total Green Object Integrated Intensity” metric. Each condition was performed at least in duplicates and each well was imaged at 4 different locations.

[4] = test system: T cells expressing ΔC9 alone (pBP1501); experiment: T cell killing assay with caspase 3/7 green reagent monitored by IncuCyte, negative control ΔC9; assay type: cell-based, human; settings: increasing doses, FIG. 108B
Source text: To determine the functionality of these switches in activated T cells, retroviral supernatants were produced and transduced into PBMCs activated from 3 separate donors.

[5] = test system: iRC9 T cells (pBP1310, GFP-Fluc); experiment: In vivo apoptotic activation in NSG mice, iRC9 T cells (IVIS imaging, spleen FACS); parameters: species or system mouse; settings: 10 mg/kg rapamycin i.p., at 24 hours, FIG. 109D
Experimental: (§1) PBMCs from donor 676 were activated and co-transduced with one of the off-switches and GFP-Fluc retroviruses. Eleven days after transduction, cells were analyzed for transduction efficiency with GFP and anti-CD3/anti-CD19 antibodies (FIG. 109A). […] The CD19^+ MFI for the different T cell populations were: iC9=15.07, iRC9=14.38, and iRmC9=13.39. The cells were collected, counted, washed, and resuspended at 1×10^6 cells in 100 μl PBS for each tail vein mouse injection (Table 10) (time=−18 hr). […] IVIS imaging was performed at −14, 0, 5, 24 and 29 hours. Mice were sacrificed and spleens were collected for FACS analysis with hCD3, hCD19 and mCD45 antibodies. […] The higher percentage of remaining iRmC9 T cells observed may be due to an artifact of normalizing the no drug group.
PBMCs from donor 676 were activated and co-transduced with retroviruses encoding the pBP0220, 1310, 1327 vectors and the GFP-Fluc plasmid. (FIG. 109A) Eleven days post transduction, the cells were analyzed for CD19 and GFP transduction efficiency prior to injection into mice. (FIGS. 109B & C) NSG mice were injected i.v. with 107 T cells co-transduced with GFP-Fluc per mouse and suicide drugs were injected i.p. the next day. Bioluminescence of cells was assessed at −14, 0, 5, 24, and 29 hours post-drug administration. […]

[6] = test system: iRmC9 T cells (pBP1327, GFP-Fluc); experiment: In vivo apoptotic activation in NSG mice, iRmC9 T cells (IVIS imaging, spleen FACS); parameters: species or system mouse; settings: 5 mg/kg rimiducid or 10 mg/kg rapamycin i.p.; spleen FACS, FIG. 109D
Experimental: as §1
PBMCs from donor 676 were activated and co-transduced with retroviruses encoding the pBP0220, 1310, 1327 vectors and the GFP-Fluc plasmid. (FIG. 109A) Eleven days post transduction, the cells were analyzed for CD19 and GFP transduction efficiency prior to injection into mice. (FIGS. 109B & C) NSG mice were injected i.v. with 107 T cells co-transduced with GFP-Fluc per mouse and suicide drugs were injected i.p. the next day. Bioluminescence of cells was assessed at −14, 0, 5, 24, and 29 hours post-drug administration. (FIG. 109D) At 29-h post-drug treatment, mice were euthanized and spleens were collected for flow cytometry analysis with antibodies to hCD3, […], and mCD45

293 cells [7] = test system: 293 cells
Experimental: FIG. 12B: Cultures of HEK-293 cells were transfected (via Genejuice, Novagen) with the constitutive SRα-SEAP reporter plasmid (pBP0046, 1 μg), a fusion of human FKBP12 with human Caspase-9 (pBP0044, 2 μg) and FRB-encoding expression constructs, containing four copies of FRBL (pBP0725, 2 μg) or control vectors encoding zero or one copy of FRBL.
To determine if iCaspase-9 could be aggregated by tandem multimers of FRBL, one to four tandem copies of FRBL were subcloned into an expression vector, pSH1, driving transgene expression from an SRα promoter. […] 293 cells were transfected with the SRα-SEAP reporter plasmid along with FKBP12-ΔCaspase-9 (iCaspase-9/iC9), plus 1 of several FRB-based, non-myristoylated scaffold proteins containing 0, 1, or 4 tandem copies of FRBL.

293 cells [8] = test system: 293 cells; remark: listed apart in the source
Source text: To determine if the polarity of heterodimerization and Caspase-9 assembly could be reversed, one to four 1 to 4 tandem copies of FKBP12 were subcloned into expression vector, pSH1, as above. […] As above, 293 cells were transfected with the SRα-SEAP reporter plasmid along with FRBL-ΔCaspase-9, plus a non-myristoylated scaffold protein containing 1 or 4 tandem copies of FKBP12.

[9] = test system: dual-switch TCR-modified T cells; settings: 10 nM Rap; 14±4% without drug
[10] = test system: EGFPluciferase-labeled T cells; experiment: In vivo function of rapamycin/rimiducid-inducible Caspase-9 switches in NSG mice (luciferase-labeled T cells)
Experimental: T cells were activated and co-transduced with the “iMC+CARζ”, SFG-iMC-2A-CAR.ζ vector, and a iC9-X vector, SFG-FRB.FKBP12.C9-2A-ΔCD19 to create a CombiCAR.
8-week-old female, immune-deficient mice (NOD.CgPrkdc^scidIl2^tm1Wjl/SzJ; NSG) were injected IV with 1×10^6 T cells in 100 p1 PBS. Mice were subjected to IVIS imaging ˜4 hrs after T cell injection (˜14 hrs post-drug administration). […] Mice were imaged again at 5-6 hrs, and 24 hrs after drug injection. Mice were sacrificed and spleens were removed for FACS analysis.
Mice were imaged for firefly luciferase-derived bioluminescence at the indicated time points relative to administration of drug or vehicle.

SMILES | activation of FRBL2-Caspase-9 (293 cells [1]) | cell death (loss of SeAP reporter) (293T cells) | maximal decrease of SEAP activity (293 cells [2]) | rapamycin concentration at which iRC9 is highly active (293 cells [3]) | elimination of FwtFRBC9/MC.FvFv T cells within 24 hours (HPAC PSCA+ tumor cells) | activity of negative control ΔC9 alone (pBP1501) in T cells [4] | iRC9 T cells remained in splenocytes compared to no drug- and rimiducid-treated groups [5] | iRmC9 T cells remained in splenocytes (normalized to no drug group) [6] | IC50 (293 cells [7]) | IC50 (293 cells [8]) | Annexin-V+ cells [9] | cell death of T cells within 24 hours in vivo [10]
COC1CC(CC(C)C2CC(=O)C(C)C=C(C)C(O)C(OC)C(=O)C(C)CC(C)C=CC=CC=C(C)C(OC(C)C)CC3CCC(C)C(O)(O3)C(=O)C(=O)N3CCCCC3C(=O)O2)CCC1O (stereo not drawn) [C7-isopropoxy-rapamycin, C7-isopropoxyrapamycin] | activated | dose-dependent high efficacy cell death switch | – | – | – | – | – | – | – | – | – | –
CO[C@H]1C[C@@H]2CC[C@@H](C)[C@@](O)(O2)C(=O)C(=O)N2CCCC[C@H]2C(=O)O[C@H]([C@H](C)C[C@@H]2CC[C@@H](O)[C@H](OC)C2)CC(=O)[C@H](C)/C=C(\C)[C@@H](O)[C@@H](OC)C(=O)[C@H](C)C[C@H](C)/C=C/C=C/C=C/1C [rapamycin] | – | – | ~50% | 100 µM | more than 60% | not active | ~25% | ~40% | ~3 nM | ~3 nM | 72±5% | 90%
